Test system: accumulation of sorbitol in nervous tissues
Experiment: Inhibiting activity of the accumulation of sorbitol in nervous tissues of streptozotocin-diabetic rats
Assay type: in vivo, SD male rats
Conditions: comparison compounds with linear alkyl group at 5-position; dose not stated

| SMILES | inhibition of the accumulation of sorbitol |
| --- | --- |
| CCCCC1SC(=S)N(CC(=O)O)C1=O (centres unmarked) [3-carboxymethyl-5-n-butylrhodanine] | hardly inhibited the accumulation of sorbitol |
| CCCC1SC(=S)N(CC(=O)O)C1=O (centres unmarked) [3-carboxymethyl-5-n-propylrhodanine] | hardly inhibited the accumulation of sorbitol |
